The values below come from US4886667A, “External preparation composition” (priority 1985, dated 1989).

≈ marks a conversion by molar mass, not a printed value. Read-outs that look alike come from different tables or passages of the source. Some results are limits rather than exact numbers.

The subject of data set [1] is Bacteroides fragilis RIMD 023001. Briefly: Minimum inhibitory concentration (MIC), agar dilution method, standard strains. The settings on record: 37° C., 60 hrs; for MIC: RIMD023001, anaerobic; for Minimum inhibitory concentration to standard strains: anaerobic. It is filed as cell-based. Background: In agar dilution, organisms are placed on agar that contains the substance at set levels.

The subject of data set [2] is Fusobacterium nucleatum ATCC 25586. The description is as above. It is filed as cell-based. The settings on record: 37° C., 60 hrs; for MIC: ATCC25586, anaerobic.
Data set [3] concerns Corynebacterium acnes ATCC 11828. Described as above. The format is cell-based. The settings on record: for MIC: Cutibacterium acnes, read-out: Minimum inhibitory concentration to standard strains.
Data set [4] deals with Trichophyton mentagrophytes IFO 5466. Described as above. It is filed as cell-based. The note with it: for MIC: read-out: Minimum inhibitory concentration to standard strains.
Data set [5] concerns Trichophyton rubrum IFO 5467. The description is as above. The note with it: for MIC: read-out: Minimum inhibitory concentration to standard strains. It is filed as cell-based.
Data set [6] concerns Microsporum gypseum IFO 8231. The description is as above. It is filed as cell-based. The settings on record: for MIC: Nannizzia gypsea, read-out: Minimum inhibitory concentration to standard strains.
For data set [7], the system named is Staphylococcus aureus ATCC 6538P. Described as above. The settings on record: for MIC: Staphylococcus aureus, ATCC6538P, 48 h, read-out: Minimum inhibitory concentration to standard strains; for Minimum inhibitory concentration to standard strains: Staphylococcus aureus ATCC 6538P, aerobic, 37° C., 48 hrs.
Data set [8] concerns Staphylococcus epidermidis ATCC 12228. Described as above. The note with it: for MIC: Staphylococcus epidermidis, ATCC12228, 48 h, read-out: Minimum inhibitory concentration to standard strains; for Minimum inhibitory concentration to standard strains: Staphylococcus epidermidis ATCC 12228, aerobic, 37° C., 48 hrs.
For data set [9], the system named is Candida albicans ATCC 10261. The data set is described as above. The note with it: for MIC: ATCC10261, read-out: Minimum inhibitory concentration to standard strains; for Minimum inhibitory concentration to standard strains: yeast, Sabouraud medium.
Data set [10] deals with Trichophyton mentagrophytes IFO 5810. The experiment in a line: Antifungal activity in vivo by trichophytosis of guinea pig. The settings on record: 1% solution; for Fungal negativity index / Healing index: 0.1 ml once a day for 8 days, guinea pig trichophytosis.
In data set [11] the test system is Bacteroides fragilis (48 isolated strains). The experiment in a line: MIC against clinically isolated strains (cumulation percent). It is filed as cell-based. The note with it: for MIC: 60 h, read-out: range of effective concentration.
Data set [12] concerns Staphylococcus pyogenes ATCC 10389. The experiment in a line: Minimum inhibitory concentration (MIC), agar dilution method, standard strains. The settings on record: aerobic, 37° C., 48 hrs.
In data set [13] the test system is Clostridium perfringens (9 isolated strains). It is filed as cell-based. The settings on record: 9 isolated strains of clostridium perfringens.
Data set [14] relates to clinically isolated anaerobic bacteria. It is filed as cell-based. The note with it: 70 isolated strains of the tested bacteria.
Data set [15] can be described thus: Acute toxicity in mice. The note with it: for LD50 / Mortalities (Dead/Treated): male mice; for LD50: 23040 min; for Mortalities (Dead/Treated): 16 days.
The mark [16] stands for this setting: ATCC11828, Corynebacterium acnes ATCC 11828, anaerobic, 37° C., 60 hrs.
[17] abbreviates: IFO5466, Trichophyton mentagrophytes IFO 5466, aerobic, 168 hrs.
Where [18] appears, read: IFO5467, Trichophyton rubrum IFO 5467, aerobic, 168 hrs.
[19] abbreviates: IFO8231, Microsporum gypseum IFO 8231, aerobic, 168 hrs.
The mark [20] stands for this setting: 48 isolated strains of Bacteroides fragilis, 100% efficiency stated for Ratanhiaphenol.

Turning to `CC1(C)S[C@@H]2[C@H](NC(=O)[C@H](C(=O)O)c3ccsc3)C(=O)N2[C@H]1C(=O)O` [L, Ticarcillin], the MIC in [1] is 50 µg/mL (≈ 130 µM); in [2] it was 6.25 µg/mL (≈ 16.3 µM); in data set [3] (setting [16]) it was 50 µg/mL (≈ 130 µM); in data set [4] (setting [17]), more than 1000 µg/mL; in [5] (setting [18]), more than 1000 µg/mL; in [6] (setting [19]), more than 1000 µg/mL. For the same molecule, the values for the MIC in data set [7] and in [8] were 3.13 µg/mL (≈ 8.14 µM) and 6.25 µg/mL (≈ 16.3 µM), respectively.
On to `COC1=CC(=O)C[C@@H](C)[C@]12Oc1c(Cl)c(OC)cc(OC)c1C2=O` [O, Griseofulvin], for which the MIC in [1] is 200 µg/mL (≈ 567 µM); in [4] (setting [17]), 6.25 µg/mL (≈ 17.7 µM); in data set [5] (setting [18]), 6.25 µg/mL (≈ 17.7 µM); in data set [6] (setting [19]) it was 6.25 µg/mL (≈ 17.7 µM); in [7], more than 1000 µg/mL; in data set [8], more than 1000 µg/mL. In data set [9], the MIC is more than 1000 µg/mL.
With `Cc1cccc(N(C)C(=S)Oc2ccc3ccccc3c2)c1` [P, Tolnaftate], the MIC was 200 µg/mL (≈ 651 µM) in data set [2]; 0.1 µg/mL (≈ 0.325 µM) in [4] (setting [17]); 0.1 µg/mL (≈ 0.325 µM) in data set [5] (setting [18]); 0.1 µg/mL (≈ 0.325 µM) in data set [6] (setting [19]); more than 1000 µg/mL in data set [7]; more than 1000 µg/mL in data set [8]. Besides, the MIC in data set [9] is more than 1000 µg/mL.
For `CC1(C)S[C@@H]2[C@H](NC(=O)[C@H](NC(=O)c3cnc4cccnc4c3O)c3ccccc3)C(=O)N2[C@H]1C(=O)O` [M, Apalcillin], the MIC in data set [1] is 50 µg/mL (≈ 95.9 µM); in data set [2], 12.5 µg/mL (≈ 24 µM); in data set [3] (setting [16]), 25 µg/mL (≈ 47.9 µM); in data set [4] (setting [17]), more than 1000 µg/mL; in data set [5] (setting [18]) it was more than 1000 µg/mL; in data set [6] (setting [19]) it was more than 1000 µg/mL. Besides, the MIC is 50 µg/mL (≈ 95.9 µM) in data set [7] and 25 µg/mL (≈ 47.9 µM) in data set [8].
In [10], `Clc1ccccc1C(c1ccccc1)(c1ccccc1)n1ccnc1` [Clotrimazole] registered a Fungal negativity index of 88% and a Healing index of 60%.
On to `CN(C)[C@@H]1C(=O)C(C(N)=O)=C(O)[C@@]2(O)C(=O)C3=C(O)c4c(O)cccc4[C@@](C)(O)[C@H]3C[C@@H]12` [R, Tetracycline], for which the MIC in data set [11] (Bacteroides fragilis) is 1.56 to 400 µg/mL (≈ 3.51 to 900 µM).
With `Cc1cc(O)ccc1C(C)C` [N, Isopropylmethylphenol], the “Minimum inhibitory concentration to standard strains” value (“Minimum inhibitory concentration” below) in data set [1] amounted to 400 µg/mL (≈ 2660 µM); in data set [7], 400 µg/mL (≈ 2660 µM); in data set [8] it was 200 µg/mL (≈ 1330 µM); in data set [12], 100 µg/mL (≈ 666 µM); in data set [9] it was 200 µg/mL (≈ 1330 µM).
For the molecule `CC1=C(C(=O)O)N2C(=O)[C@@H](NC(=O)[C@H](N)c3ccccc3)[C@H]2SC1` [S, Cefalexin], in [11] (setting [20]), the MIC fell in the range of 3.13 to 400 µg/mL (≈ 9.01 to 1150 µM).
In general, LD50 refers to the dose expected to kill half of the subjects tested. Read a high LD50 as a less toxic substance. Turning to Ratanhiaphenol [F], the “Minimum inhibitory concentration” value came out at 6.25 µg/mL in data set [1]; 6.25 µg/mL in [2] (anaerobic); 6.25 µg/mL in data set [3] (Corynebacterium acnes ATCC 11828, anaerobic, 37° C., 60 hrs); 1.56 µg/mL in data set [4] (Trichophyton mentagrophytes IFO 5466, aerobic, 168 hrs); 1.56 µg/mL in data set [5] (Trichophyton rubrum IFO 5467, aerobic, 168 hrs); 0.78 µg/mL in data set [6] (Microsporum gypseum IFO 8231, aerobic, 168 hrs). The “Minimum inhibitory concentration” value in data set [7] is 0.39 µg/mL; in data set [8], 0.39 µg/mL; in [12], 0.10 µg/mL; in data set [9], more than 10 µg/mL. The “range of effective concentration” value in data set [11] (setting [20]) was in the range of 1.56 to 6.25 µg/mL. Further, the “range of effective concentration (100% efficiency)” value is 3.13 to 12.5 µg/mL in data set [13] and 1.56 to 12.5 µg/mL in data set [14]. The “healing effect compared with 1% clotrimazole solution” value in [10] is listed as “equivalent to that of 1% clotrimazole solution”. Also, in [10], the Fungal negativity index was 81%. This molecule yielded a Healing index in data set [10] of 67%. The LD50 is 5000 mg/kg in data set [15] (oral administration) and more than 5000 mg/kg in [15] (subcutaneous administration). In addition, in [15] (oral or subcutaneous single dose, mice), the toxicity result was “low”. The abnormal sign entry in data set [15] (oral or subcutaneous single dose, mice, 16 days observation) is “no abnormal sign was observed”. The “Mortalities (Dead/Treated)” value is 0/5 in [15] (oral, 1 g/kg); 2/5 in data set [15] (oral, 5 g/kg); 0/5 in data set [15] (subcutaneous, 1 g/kg); 0/5 in [15] (subcutaneous, 5 g/kg).
For the molecule `C[CH2][Hg][S]c1ccccc1C(=O)[O-].[Na+]` [Thimerosal], in [10], the Fungal negativity index worked out at 100% and the Healing index was 100%.
For `C=CCCCCCCCCC(=O)O` [Q, Undecylenic acid], the MIC in [3] (ATCC11828, 60 h) was 400 µg/mL (≈ 2170 µM); in [4] (Trichophyton mentagrophytes, IFO5466, 168 h) it was 12.5 µg/mL (≈ 67.8 µM); in [5] (Trichophyton rubrum, IFO5467, 168 h), 12.5 µg/mL (≈ 67.8 µM); in data set [6] (IFO8231, 168 h), 6.25 µg/mL (≈ 33.9 µM); in data set [7], more than 1000 µg/mL; in data set [8], more than 1000 µg/mL. Also, the MIC in data set [9] was determined as 200 µg/mL (≈ 1090 µM).
